Data set [1] in a line: physicochemical stability of the new solid forms. An excerpt:
Although there is good understanding of the physicochemistry of the cocrystal components, their elucidation a priori is almost impossible, as the interactions which determine the structure are relatively weak and the number of degrees of freedom for the optimization problem is immeasurable. For these reasons, the new solid forms disclosed herein are not obvious to a person skilled in the art. Further, the cocrystals and solvates of the present invention have shown physicochemical stability, allowing their use in pharmaceutical compositions. The present invention worked, among others, with the following coformers: aliphatic carboxylic acids, aromatic carboxylic acids, aromatic hydroxycarboxylic acids, aliphatic hydroxycarboxylic acids, aromatic heterocyclic amides, amino acid derivatives, polyphenols, alcohols such as xylitol and aromatic aminocarboxylic acids such as 3-aminobenzoic acid. A new solid form (NSF) which was stable with 3-hydroxybenzoic acid was found in the different assays of the present invention. The obtained NSF corresponds to a compound wherein the neutral coformer has a hydroxyl group and a carboxylic acid, and further contains a phenyl group as part of its structure.

For data set [2] the following is noted: in therapeutic concentrations; cited from earlier work.
The conditions of data set [3]: cited from earlier work.
The conditions of data set [4]: neutral form, D+ isomer (6R,12R); cited from earlier work.

Take `CN1CC(=O)N2[C@H](c3ccc4c(c3)OCO4)c3[nH]c4ccccc4c3C[C@@H]2C1=O.O=C(O)c1cccc(O)c1`: the “physicochemical stability of the solid form” value in data set [1] is given as “stable”.

On to `CN1CC(=O)N2[C@H](c3ccc4c(c3)OCO4)c3[nH]c4ccccc4c3C[C@@H]2C1=O` [tadalafil], for which the “plasmatic tadalafil bonded to proteins” value in data set [2] is listed as 94%. Besides, in data set [3] (faeces), the “eliminated in faeces, predominantly as metabolites” value is recorded as “approximately 61 % of the dose”. For the same compound, in data set [3] (urine), the “eliminated in urine, predominantly as metabolites” value was “approximately 36 % of the dose”. The solubility in water result in data set [4] is reported as “almost insoluble in water”.

Values taken from patent US9278970B2, “Co-crystals of tadalafil and a hydroxy-substituted benzoic acid coformer as phosphodiesterase type 5 inhibitors” (Laboratorios Senosiain S.A. de C.V., priority 2012, dated 2016).
